Experimental data published in patent US9248114B2, “Use of 2,5-dihydroxybenzene compounds and derivatives for the treatment of hematological dyscrasias and cancer of an organ” (Action Medicines, S.L., priority 2006, dated 2016).

How the values were obtained:
bFGF-induced fibrosis = bFGF-induced fibrosis around subcutaneously implanted gelatin sponges in rats; type: in vivo, Sprague-Dawley rats; conditions: 100 μM in gelatin sponge with bFGF and heparin, subcutaneous, 7 days
Procedure: Sterile gelatin sponges (1 mm^3; Curaspon Dental, Clinimed Holding, Zwanenburg, The Netherlands) were subcutaneously implanted in the dorsal region of the neck in Sprague-Dawley rats after the induction of intraperitoneal anesthesia. The animals were split into two groups: group A, the sponges were moistened with 200 μl of saline solution which contained 25 μg/ml of heparin and 10 μg/ml of basic FGF (bFGF); group B, the sponges were moistened in the same solution as in group A, but which solution further contained 2,5-dihydroxybenzoate (100 μM). After 7 days, the sponges and the surrounding subcutaneous fat were removed and histologically analyzed.

rat glioma C6 cells = assay: Rat glioma C6 cell proliferation (crystal violet staining); type: cell-based; conditions: 48 h
Procedure: The cell line used was rat glioma C6 cells. The cells were cultured as previously described (Cuevas P et al. Neurol Res, 2005). The cells were cultured as adherent cells in Dulbecco's modified Eagle's medium, supplemented with 7.5% (v/v) of fetal bovine serum, 10 μg/ml of streptomycin and 10 units/ml of penicillin. The tumor cells were seeded in 24-well plates at a density of 10,000 cells/well, and were incubated at 37° C. in a humidified chamber with 5% CO2. Once adhered, the cells were treated or not (controls) with 2,5-dihydroxybenzoate at 100, 200, 500 or 1000 μM and they were allowed to proliferate for 48 h. After this time the glioma cell proliferation was evaluated by means of staining the fixed cells with crystal violet. The number of cells is proportional to the amount of retained dye, which was spectrophotometrically determined by measuring the absorbance at 595 nm once the dye was extracted from the cells.
(§1) The cell line used was the C6 cell line and the experiment was carried out as described in Example 2. Once adhered, the cells were treated or not (controls) with increasing concentrations of 2,5-DHC (10, 25, 50 and 100 μM) and they were allowed to proliferate for 48 h. After this time the glioma cell proliferation was evaluated by means of staining the fixed cells with crystal violet. The number of cells is proportional to the amount of retained dye, which was determined spectrophotometrically by measuring absorbance at 595 nm once the dye was extracted from the cells.
as §1, with “examples 2 and 3.” for “Example 2.”, “(5A-2HBS) (500 μM) or (2A-5HBS) (500” for “increasing concentrations of 2,5-DHC (10, 25, 50 and 100”, “measuring the” for “measuring”

[1] = target: T1, fibroblast growth factor-1 (FGF-1) (Homo sapiens, UniProt P05230); assay: Crystal diffraction of complexes with FGF-1; conditions: co-crystal, electron density contoured at 1σ; acetoxyl groups conserved on binding
T1 sequence (P05230 whole entry, species assumed): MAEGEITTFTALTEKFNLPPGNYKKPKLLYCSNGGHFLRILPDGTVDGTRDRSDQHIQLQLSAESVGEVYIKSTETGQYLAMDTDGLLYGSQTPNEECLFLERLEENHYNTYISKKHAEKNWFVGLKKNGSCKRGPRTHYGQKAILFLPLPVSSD
Procedure: Based on the crystal diffraction of the FGF-1:2-acetoxy-5-hydroxybenzene sulfonic acid, FGF-1:5-acetoxy-2-hydroxybenzene sulfonic acid and FGF-1:2,5-diacetoxybenzene sulfonic acid complexes, the structures of the complexes were calculated and represented. FIGS. 13, 14 and 15, which show the surface of the dyed protein according to its electrostatic potential (light grey, negative charge; dark grey, positive charge; white, regions with no charge), show the manner in which 2-acetoxy-5-hydroxybenzene sulfonic acid, 5-acetoxy-2-hydroxybenzene sulfonic acid and 2,5-diacetoxybenzene sulfonic acid interact, respectively, with FGF-1.

[2] = tested on: subcutaneous gliomas (rat C6 glioma cells); assay: Progression of established subcutaneous C6 gliomas in rats; type: in vivo; conditions: i.p. 100 mg/kg/day for 10 days; for average size (volume) of subcutaneous gliomas: treatment started 5 days after implantation
Procedure: Rat C6 glioma cells were cultured as previously described (Cuevas P et al. Neurol Res, 2005). The C6 cells cultured to confluence in 75 cm^2 flasks were removed and implanted under the abdominal skin in anesthetized rats. The existence of a tumor in the implantation area was observed five days after the implantation of the tumor cells. Only the rats in which the existence of a tumor was observed were randomly assigned to be treated with daily intraperitoneal injections of 2,5-dihydroxybenzene sulfonate (DHBS; 100 mg/kg/day), 2,5-diacetoxybenzene sulfonate (DABS; 100 mg/kg/day) or the carrier (0.9% NaCl). After 10 days of treatment, the subcutaneous gliomas were removed and their volume was calculated according to the formula V=4/3π·(L/2)·(A/2)^2 (in mm^3) where L is the larger diameter and A is the smaller diameter, both expressed in mm.

[3] = target: T1, fibroblast growth factor-1 (FGF-1); assay: Mitogenesis induced by FGF-1 in quiescent Balb/c 3T3 fibroblast cultures; type: cell-based; conditions: quiescent Balb/c 3T3 fibroblasts
Procedure: The evaluated compounds were used in the form of potassium salt, except in the first case which used calcium salt. The experiments were carried out as described in Fernandez-Tornero C et al. J Biol Chem, 2003.

[4] = tested on: human prostate cancer PC-3 cells; assay: Subcutaneous PC-3 prostate tumor implantation model in athymic mice; type: in vivo, athymic mice (Nu/Nu); conditions: 100 mg/kg daily i.p. for 15 days
Procedure: 5×10^6 human prostate cancer PC-3 cells were subcutaneously injected in male athymic mice (Nu/Nu) of 6-8 weeks of age and weighing 20-26 g. Ten days after the implantation of the tumor cells, the mice were randomly split into two groups: one of them received a daily injection of potassium 2,5-diacetoxybenzene sulfonate (DABS) by intraperitoneal route at a dose of 100 mg/kg dissolved in saline (0.9% NaCl) whereas the other group received a daily injection of carrier (saline). The treatments were administered for 15 days. The volumes of the tumors induced by the implantation of PC-3 cells were measured through the skin on alternating days using a Vernier caliper. The volume was calculated using the formula V=(D×2d)/2, where D is the larger diameter in mm, d is the smaller diameter in mm and V is the volume in mm3. At the end of treatment, the mice were sacrificed and the tumors were weighed.

[5] = tested on: tumor cells of subcutaneous gliomas; assay: Apoptosis in sections of established subcutaneous gliomas in rats; type: in vivo; conditions: 100 mg/kg/day i.p. for 10 days
From the text: Tumor cells elude the programmed cell death process or apoptosis that normal cells experience. Apoptosis induction in tumor cells is one way to confront the development of a tumor. To evaluate the effect of potassium 2,5-dihydroxybenzene sulfonate […] on tumor cell apoptosis, 6 μm thick sections of the subcutaneous gliomas described in example 4 were made. The sections were stained with hematoxylin and eosin and observed at a magnification of 313 times using immersion oil. In these conditions, cell apoptosis is shown by the existence of apoptotic bodies appearing as strongly chromogenic granules in the cell nucleus which is frequently fragmented.

Compound | binding site on FGF-1 in the crystal complex [1] | average size (volume) of subcutaneous gliomas [2] | mitogenesis induced by FGF-1 [3] | rat glioma cell proliferation (rat glioma C6 cells; 500 μM) | further results
O=C(O)c1cc(O)ccc1O [2,5-dihydroxybenzoate, 2,5-dihydroxybenzoic acid] | – | – | – | – | bFGF-induced fibrosis (fibroblasts in septa of connective tissue of adipose tissue) (bFGF-induced fibrosis): reduces bFGF-induced fibrosis; rat glioma C6 cell proliferation, significance of the effect (rat glioma C6 cells; 500 μM): statistically significant; rat glioma C6 cell proliferation, significance of the effect (rat glioma C6 cells; 1000 μM): statistically significant; rat glioma C6 cell proliferation (absorbance at 595 nm) (rat glioma C6 cells; 100, 200, 500 or 1000 μM): inhibited rat glioma C6 cell proliferation in a concentration-dependent manner
CC(=O)Oc1ccc(OC(C)=O)c(S(=O)(=O)[O-])c1.[K+] [DABS, potassium 2,5-diacetoxybenzene sulfonate] | occupy a site that is very close to the one that has been described occupied by 2,5-dihydroxybenzene sulfonic acid | even less | inhibition of mitogenesis | – | probability of being tumor-free (χ2 test) versus group treated with DHBS [2]: greater probability of being tumor-free; weight of the extracted tumor when treatment ended [4]: significant reduction; tumor growth (tumor volume measured through the skin) ([4]; started 10 days after implantation): significantly reduced; tumor cells in apoptosis in glioma sections (hematoxylin and eosin) [5]: a large number of tumor cells in apoptosis
O=S(=O)([O-])c1cc(O)ccc1O.[K+] [DHBS, potassium 2,5-dihydroxybenzene sulfonate, reference compound] | – | less than that of the rats treated with carrier | inhibition of the mitogenesis | – | –
CC(=O)Oc1ccc(O)c(S(=O)(=O)[O-])c1.[K+] [5A-2HBS, potassium 5-acetoxy-2-hydroxybenzene sulfonate] | occupy a site that is very close to the one that has been described occupied by 2,5-dihydroxybenzene sulfonic acid | – | inhibition of mitogenesis | caused the inhibition of rat glioma cell proliferation | –
CC(=O)Oc1ccc(O)cc1S(=O)(=O)[O-].[K+] [2A-5HBS, potassium 2-acetoxy-5-hydroxybenzene sulfonate] | occupy a site that is very close to the one that has been described occupied by 2,5-dihydroxybenzene sulfonic acid | – | inhibition of mitogenesis | caused the inhibition of rat glioma cell proliferation | –
